The numbers were not newly measured in publication PMC8674134, “Safety and efficacy of avapritinib in advanced systemic mastocytosis: the phase 1 EXPLORER trial” (Nature Medicine, 2021), which cites them from elsewhere.

One data set relates to KIT D816V. Further details: method as in PMID 16779792, PMID 15166033, PMID 19193436. Particulars: cited from earlier work.
Data set [1] concerns advanced systemic mastocytosis (AdvSM). Also noted: method as in PMID 32392175. Particulars: post hoc exploratory analysis of pivotal phase 2 study; cited from earlier work.
Another data set concerns mast cell leukemia (MCL). Further details: method as in PMID 27355533. Particulars: patients with MCL; 95% CI, 6–54%; cited from earlier work.

Take `Cc1ccc(NC(=O)c2ccc(CN3CCN(C)CC3)cc2)cc1Nc1nccc(-c2cccnc2)n1` [Imatinib]: in the data set on KIT D816V, the “Activity against KIT D816V” value is on record as “lacks activity”.
On to `CO[C@@H]1[C@H](N(C)C(=O)c2ccccc2)C[C@H]2O[C@]1(C)n1c3ccccc3c3c4c(c5c6ccccc6n2c5c31)C(=O)NC4` [midostaurin], for which, in data set [1], the “CR rate by IWG-MRT-ECNM criteria” value is 2% and the “Responses by IWG-MRT-ECNM criteria, patients” value is given as 28%. Moreover, the “24-month OS” value in the data set on mast cell leukemia (MCL) is listed as 26%.
